Measured values published in US20160311914A1, “USE OF B LYMPHOCYTE STIMULATOR PROTEIN ANTAGONISTS TO PROMOTE TRANSPLANTATION TOLERANCE” (The Trustees of the University of Pennsylvania, priority 2009, published 2016).

Columns and labels:
[1] = system: Streptozotocin-treated diabetic B6 mice transplanted with BALB/c islets; assay: Islet allograft survival, BALB/c islets transplanted into Streptozotocin-treated diabetic B6 mice; type: in vivo, mouse; details: FIG. 3
Protocol: (§1) FIG. 1 is a timeline detailing the administration of anti-B Lymphocyte Stimulator (anti-BLys™) antibodies and Rapamycin in Streptozotocin-treated diabetic mice transplanted with islets from another mouse strain.
(§2) FIG. 3 is a graph illustrating the percent survival (y-axis) versus time in days (x-axis) for Streptozotocin-treated diabetic B6 mice transplanted with BALB/c islets. Mice were administered Rapamycin (Rapa) (-□-); anti-B Lymphocyte Stimulator (anti-BLys™) antibodies and Rapamycin (anti-BLys™/Rapa) (-Δ-); or neither (no treatment; control) (-⋄-) in accordance with the timeline set forth in FIG. 1.
(§3) BLyS™ regulates mature B-lymphocyte survival and negative selection at the transitional to follicular (TR:FO) tolerance checkpoint. To determine the effect of BLyS™ in an in vivo allograft model, murine islet cells from B6 and BALB/c donor mice were transplanted into Streptozotocin-treated diabetic BALB/c and B6 mice, respectively. The recipient mice were treated with a regimen consisting of a B-lymphocyte depleting dose of a neutralizing anti-BLyS™ mAb (100 μg) on days 10 and 1 post-transplantation, followed by a weekly maintenance taper (50 μg×2 wks, 25 μg×2 wks, 10 μg×2 wks, and 5 μg×2 wks). Starting on the day of islet transplantation, the Streptozotocin treated diabetic recipients were treated with 0.5 mg/kg Rapamycin every other day for two weeks.

[2] = system: Streptozotocin-treated diabetic BALB/c mice transplanted with B6 islets; assay: Islet allograft survival, B6 islets transplanted into Streptozotocin-treated diabetic BALB/c mice; type: in vivo, mouse; details: FIG. 2
Protocol: as §1
as §2, with “2” for “3”, “BALB/c” for “B6”, “B6” for “BALB/c”
as §3

CO[C@H]1C[C@@H]2CC[C@@H](C)[C@@](O)(O2)C(=O)C(=O)N2CCCC[C@H]2C(=O)O[C@H]([C@H](C)C[C@@H]2CC[C@@H](O)[C@H](OC)C2)CC(=O)[C@H](C)/C=C(\C)[C@@H](O)[C@@H](OC)C(=O)[C@H](C)C[C@H](C)/C=C/C=C/C=C/1C [Rapamycin]
mean survival time (MST) [1]: 39 days
mean survival time (MST) [2]: 61 days
